The supplement of paper PMC10307832

What was measured:
Assay in all cases: relative viability (nuclei count vs DMSO), 5 days (fraction); higher = more cells survive
Cediranib + Trametinib = compound: COc1cc2c(Oc3ccc4[nH]c(C)cc4c3F)ncnc2cc1OCCCN1CCCC1 [Cediranib] + CC(=O)Nc1cccc(-n2c(=O)n(C3CC3)c(=O)c3c(Nc4ccc(I)cc4F)n(C)c(=O)c(C)c32)c1 [Trametinib] (partner 0.02 µM)
Procedure, shortened: (§1)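 Medians of duplicate plates are given as relative viability. That measure is the nuclei count in treated wells divided by the count in vehicle wells. Counts were taken on 4× images of lung cancer cell lines in 1536-well plates, 5 days after pin-tool dosing the day after seeding with one drug alone or a fixed anchor-drug dose plus five library-drug doses (not always all listed) in √10 steps.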

Decitabine + Navitoclax = compound: Nc1ncn([C@H]2C[C@H](O)[C@@H](CO)O2)c(=O)n1 [Decitabine] + CC1(C)CCC(c2ccc(Cl)cc2)=C(CN2CCN(c3ccc(C(=O)NS(=O)(=O)c4ccc(N[C@H](CCN5CCOCC5)CSc5ccccc5)c(S(=O)(=O)C(F)(F)F)c4)cc3)CC2)C1 [Navitoclax] (partner 0.5 µM)
Procedure, shortened: as §1

[1] = compound: O=C(C[C@H]1NCCC[C@@H]1O)Cn1cnc2cc(Br)c(Cl)cc2c1=O (racemic) [Halofuginone] + Cc1cc(Nc2cc(N3CCN(C)CC3)nc(Sc3ccc(NC(=O)C4CC4)cc3)n2)n[nH]1 [Tozasertib] (partner 0.1 µM)
Procedure, shortened: as §1

[2] = compound: O=C(C[C@H]1NCCC[C@@H]1O)Cn1cnc2cc(Br)c(Cl)cc2c1=O (racemic) [Halofuginone] + C[C@@H](Oc1cc(-c2cnn(C3CCNCC3)c2)cnc1N)c1c(Cl)ccc(F)c1Cl [Crizotinib] (partner 1 µM)
Procedure, shortened: as §1

Cell Line | relative viability (Cediranib + Trametinib; first compound 0.04 µM) | relative viability (Cediranib + Trametinib; first compound 0.1265 µM) | relative viability (Cediranib + Trametinib; first compound 0.4 µM) | relative viability (Cediranib + Trametinib; first compound 1.265 µM) | relative viability (Cediranib + Trametinib; first compound 4 µM) | relative viability (Decitabine + Navitoclax; first compound 0.04 µM) | relative viability (Decitabine + Navitoclax; first compound 0.1265 µM) | relative viability (Decitabine + Navitoclax; first compound 0.4 µM) | relative viability (Decitabine + Navitoclax; first compound 1.265 µM) | relative viability (Decitabine + Navitoclax; first compound 4 µM) | relative viability ([1]; first compound 0.001 µM) | relative viability ([1]; first compound 0.003162 µM) | relative viability ([1]; first compound 0.01 µM) | relative viability ([1]; first compound 0.03162 µM) | relative viability ([1]; first compound 0.1 µM) | relative viability ([2]; first compound 0.001 µM) | relative viability ([2]; first compound 0.003162 µM) | relative viability ([2]; first compound 0.01 µM) | relative viability ([2]; first compound 0.03162 µM) | relative viability ([2]; first compound 0.1 µM)
NCI-H2347 | 0.316 | 0.282 | 0.233 | 0.286 | 0.318 | 0.792 | 0.543 | 0.425 | 0.385 | 0.348 | 0.558 | 0.521 | 0.662 | 0.692 | 0.418 | 0.677 | 0.72 | 0.81 | 0.736 | 0.551
NCI-H2405 | 0.647 | 0.941 | 0.562 | 0.636 | 0.614 | 0.769 | 0.837 | 0.455 | 0.355 | 0.244 | 0.906 | 0.776 | 0.682 | 0.775 | 0.64 | 0.907 | 0.935 | 0.822 | 0.831 | 0.74
NCI-H3122 | 0.226 |  | 0.218 | 0.242 | 0.282 | 0.999 | 0.984 | 0.97 | 0.886 | 0.76 | 0.38 | 0.381 | 0.356 | 0.414 | 0.166 | 0.253 | 0.251 | 0.232 | 0.281 | 0.264
PC-3 [JPC-3] | 0.69 |  | 0.681 | 0.708 | 0.662 |  | 0.601 | 0.526 | 0.463 | 0.51 | 0.863 | 0.872 | 0.863 | 0.874 | 0.856 | 1.03 | 0.969 | 0.975 | 0.943 | 0.988
PC-14 | 0.862 | 0.664 | 0.66 | 0.582 | 0.519 | 0.51 | 0.556 | 0.231 | 0.162 | 0.166 | 0.701 | 0.626 | 0.495 | 0.529 | 0.208 | 1 | 0.826 | 0.727 | 0.722 | 0.183
